Patent US20240174639A1, “PYRIDINE DERIVATIVES USEFUL AS HCN2 MODULATORS” (King's College London, priority 2021, published 2024)
Where a name gives a salt, the structure may show the parent alone.

Legend:
HCN2 = molecular target: T1, HCN2 (Homo sapiens, UniProt Q9UL51); assay: HCN2 assay using the Sophion Qube (Example 50B); type: cell-based; conditions: Sophion Qube protocol (SQ)
T1 sequence (Q9UL51 1-889): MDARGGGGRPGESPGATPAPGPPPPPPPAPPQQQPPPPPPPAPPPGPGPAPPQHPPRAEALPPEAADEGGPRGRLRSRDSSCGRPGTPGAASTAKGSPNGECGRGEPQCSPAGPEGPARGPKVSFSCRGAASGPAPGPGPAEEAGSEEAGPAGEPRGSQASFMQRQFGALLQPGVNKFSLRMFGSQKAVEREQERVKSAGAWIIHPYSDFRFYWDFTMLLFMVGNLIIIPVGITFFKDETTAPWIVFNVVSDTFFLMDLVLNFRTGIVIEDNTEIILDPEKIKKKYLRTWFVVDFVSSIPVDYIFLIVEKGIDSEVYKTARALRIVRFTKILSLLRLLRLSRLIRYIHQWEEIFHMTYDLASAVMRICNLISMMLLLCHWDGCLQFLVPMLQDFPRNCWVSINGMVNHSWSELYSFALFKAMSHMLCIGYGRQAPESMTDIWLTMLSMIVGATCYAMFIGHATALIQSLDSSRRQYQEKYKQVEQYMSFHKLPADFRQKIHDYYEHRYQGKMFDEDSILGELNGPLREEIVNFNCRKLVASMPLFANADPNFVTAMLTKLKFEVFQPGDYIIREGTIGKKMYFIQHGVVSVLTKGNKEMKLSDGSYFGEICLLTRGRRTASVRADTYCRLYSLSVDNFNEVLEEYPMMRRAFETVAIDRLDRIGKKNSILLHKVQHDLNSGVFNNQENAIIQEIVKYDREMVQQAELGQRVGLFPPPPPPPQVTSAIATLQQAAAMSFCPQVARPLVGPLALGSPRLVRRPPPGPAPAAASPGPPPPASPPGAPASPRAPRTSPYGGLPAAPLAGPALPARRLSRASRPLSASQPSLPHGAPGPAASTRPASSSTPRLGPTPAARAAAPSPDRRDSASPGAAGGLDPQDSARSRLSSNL
Description: Solutions for recording HCN currents were:
For HCN1 and HCN2 the cells were held at −30 mV and then stepped to −110 mV for 2 seconds before stepping back to −30 mV, this represents 1 experimental sweep. This voltage protocol was applied every 20 seconds for the duration of the experiment. Both the vehicle (0.3% DMSO) and full block (3 mM CsCl) addition periods were applied for 10 experimental sweeps each. The compound addition period was applied for 30 sweeps.
The currents evoked by the step to −110 mV (HCN1 and HCN2) or −130 mV (HCN4) were measured for the analysis of the percentage inhibition by test compounds. The current amplitudes were measured by subtracting metric A from metric B (see FIG. 2) with inhibition calculated by normalising to the vehicle addition (0.3% DMSO) and full inhibition by 3 mM CsCl in the same well.
In total, compound was applied to the well for 600 seconds.

HCN4 = molecular target: T2, HCN4 (Homo sapiens, UniProt Q9Y3Q4); assay: HCN4 assay using the Sophion Qube (Example 50B); type: cell-based; conditions: Sophion Qube protocol (SQ)
T2 sequence (Q9Y3Q4 1-1203): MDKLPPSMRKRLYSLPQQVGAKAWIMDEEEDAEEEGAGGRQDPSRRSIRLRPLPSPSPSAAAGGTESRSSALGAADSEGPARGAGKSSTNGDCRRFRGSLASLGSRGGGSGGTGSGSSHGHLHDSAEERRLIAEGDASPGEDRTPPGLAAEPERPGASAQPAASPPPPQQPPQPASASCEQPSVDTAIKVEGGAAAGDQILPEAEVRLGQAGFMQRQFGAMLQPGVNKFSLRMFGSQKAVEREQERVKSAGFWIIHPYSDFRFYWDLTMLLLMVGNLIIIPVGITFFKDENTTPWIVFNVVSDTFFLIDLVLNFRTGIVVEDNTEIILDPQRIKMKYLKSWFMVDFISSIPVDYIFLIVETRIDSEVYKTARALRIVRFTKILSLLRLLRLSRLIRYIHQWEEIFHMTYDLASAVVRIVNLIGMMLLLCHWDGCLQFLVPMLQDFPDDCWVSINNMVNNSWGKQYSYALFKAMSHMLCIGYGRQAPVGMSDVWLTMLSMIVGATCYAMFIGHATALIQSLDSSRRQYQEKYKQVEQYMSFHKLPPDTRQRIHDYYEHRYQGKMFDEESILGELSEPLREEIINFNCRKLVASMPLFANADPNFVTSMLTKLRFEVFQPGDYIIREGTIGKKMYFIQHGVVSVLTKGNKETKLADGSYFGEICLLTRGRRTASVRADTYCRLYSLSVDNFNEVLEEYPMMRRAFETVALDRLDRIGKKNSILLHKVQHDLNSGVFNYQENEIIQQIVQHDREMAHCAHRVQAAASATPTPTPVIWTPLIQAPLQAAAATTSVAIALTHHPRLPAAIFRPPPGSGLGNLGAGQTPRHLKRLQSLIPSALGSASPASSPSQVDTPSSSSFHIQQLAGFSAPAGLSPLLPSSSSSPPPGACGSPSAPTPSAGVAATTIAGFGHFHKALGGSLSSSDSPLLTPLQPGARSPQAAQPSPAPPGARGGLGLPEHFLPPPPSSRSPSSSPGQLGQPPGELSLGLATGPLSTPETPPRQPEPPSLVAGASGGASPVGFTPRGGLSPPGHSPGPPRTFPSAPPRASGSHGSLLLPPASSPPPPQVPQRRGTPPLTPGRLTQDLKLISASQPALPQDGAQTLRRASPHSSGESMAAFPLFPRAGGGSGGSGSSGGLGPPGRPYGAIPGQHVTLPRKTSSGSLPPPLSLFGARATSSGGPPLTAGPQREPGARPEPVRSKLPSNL
Description: Solutions for recording HCN currents were: [table] For HCN4, the cells were held at −30 mV and then stepped to −130 mV for 4 seconds before stepping back to −30 mV, this represents 1 experimental sweep. This voltage protocol was applied every 20 seconds for the duration of the experiment. Both the vehicle (0.3% DMSO) and full block (3 mM CsCl) addition periods were applied for 10 experimental sweeps each. The compound addition period was applied for 30 sweeps. The currents evoked by the step to −110 mV (HCN1 and HCN2) or −130 mV (HCN4) were measured for the analysis of the percentage inhibition by test compounds. The current amplitudes were measured by subtracting metric A from metric B (see FIG. 2) with inhibition calculated by normalising to the vehicle addition (0.3% DMSO) and full inhibition by 3 mM CsCl in the same well. […] In total, compound was applied to the well for 600 seconds.

Row | SMILES | IC50 (HCN2) [µM] | IC50 (HCN4) [µM]
1 | Cc1ccc(C#N)nc1C[C@H](N)c1ncccc1-n1ncc2cc(Br)ccc21 [Example 36, hydrochloride] | 0.77 | 4.7
2 | N#Cc1ccc(F)c(C[C@H](N)c2ncccc2-n2ncc3cc(F)ccc32)n1 [Example 38, (S)-6-{2-Amino-2-[3-(5-fluoro-1H-indazol-1-yl)pyridine-2-yl]ethyl}-5-fluoropyridine-2-carbonitrile] | 0.79 | > 30
3 | Cc1ccc2c(cnn2-c2cccnc2[C@@H](N)Cc2nc(C#N)ccc2F)c1 [Example 39, (S)-6-{2-Amino-2-[3-(5-methyl-1H-indazol-1-yl)pyridine-2-yl]-ethyl}-5-fluoropyr-idine-2-carbonitrile hydrochloride] | 0.31 | 3.7
4 | CS(=O)(=O)c1ccc(F)c(C[C@H](N)c2ncccc2-n2ncc3cc(Cl)ccc32)n1 [Example 41, (S)-1-[3-(5-Chloro-1H-indazole-1-yl)-pyridine-2-yl]-2-(3-fluoro-6-methylsulfon-ylpyridine-2-yl)ethan-1-amine hydrochloride] | 3.9 | > 30

Results, then the compound that gave them:

Row | IC50 (HCN2) [µM] | IC50 (HCN4) [µM] | SMILES
5 | 0.6 | 3.4 | N#Cc1ccc(F)c(C[C@H](N)c2ncccc2-n2ncc3cc(Cl)ccc32)n1 [Example 45, (S)-6-{2-Amino-2-[3-(5-chloro-1H-indazol-1-yl)pyridine-2-yl-ethyl}-5-fluoropyr-idine-2-carbonitrile hydrochloride]
6 | 0.63 | 10 | Cc1ccc(C#N)nc1C[C@H](N)c1ncccc1-n1ncc2cc(F)ccc21 [Example 47]
7 | 2.1 | 11.1 | CS(=O)(=O)c1ccc(F)c(C[C@H](N)c2ncccc2-n2ncc3cc(Br)ccc32)n1 [Example 48, (S)-1-[3-(5-Bromo-1H-indazole-1-yl)pyridine-2-yl]-2-(3-fluoro-6-methylsulfonylpyr-idine-2-yl)ethan-1-amine hydrochloride]
